Reference: paper PMC3610872, “Full and Partial Agonists of Thromboxane Prostanoid Receptor Unveil Fine Tuning of Receptor Superactive Conformation and G Protein Activation” (PLoS ONE, 2013)
Positions count from the first letter of the chain named.

Tests used:
WT human TP receptor [1] = biological target: T1, WT human TP receptor (Homo sapiens, UniProt P21731); assay: Total inositol phosphate (IP) accumulation, WT receptor; format: cell-based; details: HEK293 cells, 30 min stimulation, value ±%CV
T1 construct: expressed in transfected cells; host or cells: HEK293
T1 sequence (P21731 1-343): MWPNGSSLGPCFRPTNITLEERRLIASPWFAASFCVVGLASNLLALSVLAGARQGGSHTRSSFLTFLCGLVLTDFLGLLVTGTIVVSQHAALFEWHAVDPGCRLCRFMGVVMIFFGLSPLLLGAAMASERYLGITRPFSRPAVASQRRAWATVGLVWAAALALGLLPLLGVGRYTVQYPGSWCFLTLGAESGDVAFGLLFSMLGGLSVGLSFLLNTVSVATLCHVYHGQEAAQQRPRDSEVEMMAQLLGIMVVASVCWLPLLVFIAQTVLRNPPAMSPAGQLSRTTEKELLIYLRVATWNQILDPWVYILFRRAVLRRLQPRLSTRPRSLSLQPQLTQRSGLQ
Protocol: Receptor expression and functional activity were monitored 48 hours after transfection. […] Heterologous competition studies involved concentrations of the indicated unlabeled ligands extending from 0.1 nM to 30 µM. After 30 min incubation at 25 °C, the reaction was stopped by aspiration of the medium, cells were washed with ice-cold PBS containing 0.2% (w/v) BSA and lysed in 0.5 N NaOH. Radioactivity was measured by liquid scintillation counting. Binding data were analyzed as described in Data and Statistical Analysis. Quantification of the total labeled inositol phosphates (IP) accumulation was performed using a conventional gravity flow column chromatography, as described previously, [19]. Briefly, the day before the assay, cells were labeled with 0,5 µCi of [myo-2-^3H]inositol (17 Ci/mmol) for 18–20 hours in serum-free, inositol-free DMEM containing 20 mM HEPES buffer, pH 7.4, and 0.5% (w/v) Albumax I. The day of the assay, media was replaced with serum-free, inositol-free DMEM containing 25 mM LiCl and cells stimulated for 30 min with the indicated agonists. After removal of the medium, cells were lysed with 10 mM formic acid and lysates were applied onto an anion exchange AG 1X-8 column, formate form, 200–400 mesh. The total IP fraction was then eluted with 2 M ammonium formate/formic acid buffer at pH 5 and radioactivity determined by liquid scintillation counting. Rescue experiments were performed essentially as above, except for a 18 hours incubation step with 1 µΜof […] followed by its removal by washing three times with ice-cold PBS containing 1 mM MgCl2 and 0.1 mM CaCl2 before starting the experiment.
(§1) All average results are presented as mean±S.E. When indicated, ANOVA followed by post-hoc test for multiple comparisons was performed. Data from radioligand binding were evaluated by a nonlinear, least-squares curve-fitting procedure using GraphPad Prism version 4, implemented with the n-ligand m-binding site model, as described in the LIGAND computer program. Concentration-response curves were evaluated using Prism 4, which use the four parameters logistic model as described in the ALLFIT program. Parameter errors are all expressed in percentage coefficient of variation (%CV) and calculated by simultaneous analysis of at least two different independent experiments performed in duplicate or triplicate. Parameter comparison has been performed on the base of the F test for extra sum of square principle. All curves shown are computer generated.

WT human TP receptor [2] = biological target: T1, WT human TP receptor; assay: BRET2 measurement of Gq protein activation, WT receptor; format: cell-based; details: HEK293 cells, value ±%CV
From the text: HEK 293 cells were co-transfected with vectors expressing the GFP^10-Gγ2, Gβ1, Gαq-Rluc8 and WT or E129V mutant of TP receptor to investigate direct G protein activation with an intramolecular bioluminescent resonance energy transfer (BRET^2) strategy. To avoid possible variations in the BRET signaling resulting from fluctuation in the relative expression levels of the energy donor and acceptor, we designed transfection conditions to maintain constant GFP^10 and Rluc8 expression and their ratios in each experimental set. Total fluorescence and luminescence were directly determined in an aliquot of the transfected cells using an Infinite F500 microplate reader (Tecan, Milan, Italy) as previously described. […] 48 hours after transfection, cells were washed once with PBS, detached, and resuspended in PBS+0.1% (w/v) glucose at room temperature. Cells were then distributed (80 µg of proteins per well) into a 96-well microplate (Wallac, Perkin Elmer, Monza, Italy) and incubated in the presence or absence of increasing concentrations of ligands for 2 min before the addition of the luciferase substrate Coelenterazine 400a (5 µM; Biotium, Hayward, CA). BRET signal between Rluc8 and GFP^10 was measured immediately after the addition of the Rluc substrate in the microplate reader. The BRET signal was calculated as the ratio of the light emitted by GFP^10 (510–540 nm) over the light emitted by Rluc8 (370–450 nm). The changes in BRET induced by the ligands were expressed as Òagonist-induced BRETÓ, obtained by subtracting the BRET signal detected in the presence of PBS by the BRET signal detected in the presence of the specific ligand.
as §1
This recorded real time conformational changes between the α and the βγ subunits within the Gq protein, where a decrease of the BRET signal provoked by agonist-induced receptor activation is indicative of a conformational reorganization leading the Gα-Gβγ interface to open, reflects the initial event of Gq protein activation, [23] (Figure 6A).

[3] = biological target: T2, E129V mutant human TP receptor (Homo sapiens, UniProt P21731, E129V); design: method as in PMID 20383734; details: E129V vs WT; cited from earlier work
T2 construct: expressed in transfected cells; host or cells: HEK293
T2 sequence (P21731 1-343 E129V): T1 sequence (P21731 1-343) with E129V

Emax, total IP (WT human TP receptor [1]; no Gαq overexpression): 12374±8 dpm/well
EC50 (WT human TP receptor [1]): 98.7 ± 70 nM
EC50 (WT human TP receptor [2]; Gαq-Rluc8/GFP10-Gγ2/Gβ1, 2 min ligand): 345 ± 14 nM
Emax, agonist-induced BRET (WT human TP receptor [2]): −0.07±3
SMILES: CCCCC[C@H](O)/C=C/[C@@H]1[C@@H](C/C=C\CCCC(=O)O)[C@H]2CO[C@@H]1C2 (relative stereo) [U46619, [1R-[1α,4α,5β(Z),6α(1E,3S*)]]-7-[6-(3-hydroxy-1-octenyl)-2-oxabicyclo[2.2.1]hept-5-yl]-5-heptenoic acid]
Fold lower EC50 than WT, total IP formation [3]: 10 fold
